Laboratory results reported in the NIST ThermoML archive (doi:10.1021/acs.jced.8b00132).
Values joined by “and” are separate entries in the source; they are usually repeats but may differ in a detail not shown here. Equal values may be shown once.

Details: Gas

O=C(C(F)(F)C(F)(F)F)C(F)(C(F)(F)F)C(F)(F)F [dodecafluoro-2-methylpentan-3-one]
Details	thermal conductivity
472.83 K, 3291 kPa, transient hot wire	0.03561 W/m/K
472.83 K, 4063 kPa, transient hot wire	0.03659 W/m/K
472.84 K, 2711 kPa, transient hot wire	0.03262 W/m/K
472.85 K, 3605 kPa, transient hot wire	0.03577 W/m/K
472.86 K, 3292 kPa, transient hot wire	0.03541 W/m/K
472.86 K, 3605 kPa, transient hot wire	0.0358 W/m/K
472.87 K, 2265 kPa, transient hot wire	0.02848 W/m/K
472.87 K, 4820 kPa, transient hot wire	0.03777 W/m/K
472.88 K, 4820 kPa, transient hot wire	0.03795 W/m/K
472.91 K, 4063 kPa, transient hot wire	0.03666 W/m/K
472.92 K, 4063 kPa, transient hot wire	0.03656 W/m/K
472.93 K, 3605 kPa, transient hot wire	0.03577 W/m/K
472.94 K, 4821 kPa, transient hot wire	0.03795 W/m/K
472.95 K, 4821 kPa, transient hot wire	0.03782 W/m/K
472.96 K, 2265 kPa, transient hot wire	0.02876 W/m/K
472.96 K, 4064 kPa, transient hot wire	0.03659 W/m/K
472.97 K, 2265 kPa, transient hot wire	0.02862 W/m/K
472.98 K, 4064 kPa, transient hot wire	0.0367 W/m/K
472.99 K, 3605 kPa, transient hot wire	0.03603 W/m/K
472.99 K, 3606 kPa, transient hot wire	0.0358 W/m/K
472.99 K, 5939 kPa, transient hot wire	0.03924 W/m/K
473.01 K, 4823 kPa, transient hot wire	0.03784 W/m/K
473.03 K, 4823 kPa, transient hot wire	0.038 W/m/K
473.06 K, 1890 kPa, transient hot wire	0.02666 W/m/K
473.06 K, 2265 kPa, transient hot wire	0.02868 W/m/K
473.06 K, 5939 kPa, transient hot wire	0.03956 W/m/K
473.07 K, 605 kPa, hot wire	0.02596 W/m/K
473.08 K, 606 kPa, hot wire	0.02604 W/m/K
473.08 K, 1889 kPa, transient hot wire	0.02628 W/m/K
473.08 K, 2265 kPa, transient hot wire	0.02867 W/m/K
473.08 K, 5937 kPa, transient hot wire	0.03959 W/m/K
473.1 K, 4824 kPa, transient hot wire	0.03789 W/m/K and 0.03779 W/m/K
473.11 K, 430 kPa, hot wire	0.0254 W/m/K
473.13 K, 429 kPa, hot wire	0.02498 W/m/K
473.14 K, 204 kPa, hot wire	0.0245 W/m/K and 0.02427 W/m/K
473.14 K, 5937 kPa, transient hot wire	0.03959 W/m/K and 0.03958 W/m/K
473.15 K, 1888 kPa, transient hot wire	0.0266 W/m/K
473.16 K, 2265 kPa, transient hot wire	0.02905 W/m/K
473.17 K, 607 kPa, hot wire	0.02579 W/m/K
473.17 K, 2265 kPa, transient hot wire	0.0291 W/m/K
473.18 K, 607 kPa, hot wire	0.02602 W/m/K
473.19 K, 7819 kPa, transient hot wire	0.04147 W/m/K
473.19 K, 49267 kPa, transient hot wire	0.06278 W/m/K
473.21 K, 47 kPa, hot wire	0.02404 W/m/K
473.21 K, 427 kPa, hot wire	0.02512 W/m/K
473.21 K, 49264 kPa, transient hot wire	0.06294 W/m/K
473.22 K, 426 kPa, hot wire	0.02501 W/m/K
473.22 K, 5937 kPa, transient hot wire	0.03959 W/m/K
473.23 K, 47 kPa, hot wire	0.02385 W/m/K
473.24 K, 203 kPa, hot wire	0.02435 W/m/K and 0.02438 W/m/K
473.24 K, 5937 kPa, transient hot wire	0.03993 W/m/K
473.26 K, 49261 kPa, transient hot wire	0.06261 W/m/K
473.26 K, 49266 kPa, transient hot wire	0.06275 W/m/K
473.27 K, 607 kPa, hot wire	0.02598 W/m/K and 0.02584 W/m/K
473.27 K, 1888 kPa, transient hot wire	0.02674 W/m/K
473.27 K, 49222 kPa, transient hot wire	0.06278 W/m/K
473.27 K, 49223 kPa, transient hot wire	0.06286 W/m/K
473.28 K, 47 kPa, hot wire	0.02405 W/m/K
473.28 K, 1888 kPa, transient hot wire	0.02686 W/m/K
473.28 K, 7819 kPa, transient hot wire	0.0414 W/m/K
473.29 K, 423 kPa, hot wire	0.02534 W/m/K
473.29 K, 5935 kPa, transient hot wire	0.03933 W/m/K
473.29 K, 7822 kPa, transient hot wire	0.04164 W/m/K
473.3 K, 47 kPa, hot wire	0.02401 W/m/K
473.3 K, 425 kPa, hot wire	0.02526 W/m/K
473.31 K, 5936 kPa, transient hot wire	0.03955 W/m/K
473.33 K, 202 kPa, hot wire	0.02458 W/m/K
473.33 K, 7818 kPa, transient hot wire	0.04161 W/m/K
473.33 K, 33947 kPa, transient hot wire	0.05683 W/m/K
473.33 K, 49216 kPa, transient hot wire	0.06307 W/m/K
473.34 K, 203 kPa, hot wire	0.02431 W/m/K
473.34 K, 33948 kPa, transient hot wire	0.05717 W/m/K
473.35 K, 47 kPa, hot wire	0.02449 W/m/K
473.35 K, 49221 kPa, transient hot wire	0.06272 W/m/K
473.36 K, 47 kPa, hot wire	0.02437 W/m/K
473.36 K, 606 kPa, hot wire	0.02606 W/m/K
473.36 K, 7821 kPa, transient hot wire	0.04152 W/m/K
473.37 K, 607 kPa, hot wire	0.0258 W/m/K
473.38 K, 420 kPa, hot wire	0.02536 W/m/K
473.38 K, 1887 kPa, transient hot wire	0.02681 W/m/K
473.38 K, 1913 kPa, transient hot wire	0.02688 W/m/K
473.38 K, 49255 kPa, transient hot wire	0.06283 W/m/K
473.39 K, 419 kPa, hot wire	0.0252 W/m/K
473.39 K, 1474 kPa, transient hot wire	0.02551 W/m/K
